Columns and labels:
Bioavailability test = format: in vivo, SD rats; settings: for BA%: SD rats, from AUC of oral and intravenous administration; for half-life: SD, rat, in vivo, iv
Description: Example 6: Bioavailability Test
<Experimental Materials and Methods for Oral Absorption Research>
• (1) Animals used: SD rats are used. • (2) Feeding conditions: SD rats were allowed to take in solid feed and purified water freely. • (3) Dosing amount and grouping setting: Oral or intravenous administration were performed at prescribed dosage. The groups were set as follows. (the dosage of each compound varied)
Oral administration 1 to 30 mg/kg (n=5 to 6)
Intravenous administration 0.5 to 10 mg/kg (n=5 to 6) • (4) Preparation of dosing solution: suspension was used for oral administration through intragastric administration. Solution was used for intravenous administration through tail vein. • (5) Evaluation items: Blood was collected overtime, and the concentrations of the drugs in plasma were determined by LC/MS/MS. • (6) Statistical analysis: For concentration changes in plasma, the area under the concentration-time curve (AUC) in plasma was calculated using the nonlinear least squares method, and the bioavailability (BA) was calculated from the AUC in the oral administration group and the intravenous administration group, and the elimination half-life of drug concentration in plasma through intravenous administration was counted.

[1] = Detection of toxicity of samples to MDCK cells (alamarBlue); format: cell-based; settings: dog, 48 hours incubation
Excerpt: Example 9: Detection of Toxicity of Samples to MDCK Cells
The experiment uses alamarBlue® (Invitrogen) kit to detect the toxic effects of drugs on cells.
Experimental principle: The experiment uses alamarBlue® (Invitrogen) kit to detect the toxic effects of drugs on cells. AlamarBlue® is a redox indicator that produces changes in absorbance and fluorescent signals based on cellular metabolic activity. AlamarBlue® is freely soluble in water. After its oxidized form enters cells, it will be reduced by mitochondrial enzymes to produce measurable fluorescence and color changes. It is used for quantitative analysis of cell viability and cell proliferation, and for in vitro cytotoxicity studies. Normal cells with metabolic activity can convert the reagents to produce strong fluorescence and color changes.
Experimental procedure: MDCK cells were seeded in a 96-well cell culture plate, and cultured till cell attachment for later use. The drug was serially 3 times diluted from 2 times the highest test concentration to 8 gradients. The drug was added to the cells and cultured in a CO2 incubator at 37° C. […] The toxicity of the drug to cells is inversely proportional to the activity of the cells and is expressed as the activity of the cells. cell activity (%)=(drug group-blank control)/(cell control-blank control)*100 Calculation formula: […]

influenza virus = assay: CPE suppression effect confirmation test; format: cell-based; settings: for CPE inhibitory effect compared with S-033188A: relative to S-033188A; for EC50: unidentified influenza virus, 72 h, read-out: CPE_EC50
[2] = tested on: A/WS/33, A/Victoria/3/75 or B/Maryland/1/59; format: in vivo, BALB/cAnNCrlCrlj mice; settings: single oral administration, 50% lethal suppression, 14 days after infection

| SMILES | BA% (Bioavailability test) [%] | half-life (Bioavailability test) [h] | CC50 at 48 h [1] [µM] | CPE inhibitory effect compared with S-033188A (influenza virus) | EC50 (influenza virus) [µM] | ED50 [2] [mg/kg/day] |
| --- | --- | --- | --- | --- | --- | --- |
| [2H][C@]1(N2[C@@H]3COCCN3C(=O)c3c(O)c(=O)ccn32)c2ccccc2SCc2c1ccc(F)c2F [1A] | 7.1 | 4 | 48.3 | twice | 0.00068 |  |
| [2H][C@]1(N2[C@@H]3COCCN3C(=O)c3c(OCOC(=O)OC)c(=O)ccn32)c2ccccc2SCc2c1ccc(F)c2F [1B] | 18.4 |  |  |  |  | 0.41 |
| [2H]C1([2H])Sc2ccccc2[C@@H](N2[C@@H]3COCCN3C(=O)c3c(O)c(=O)ccn32)c2ccc(F)c(F)c21 [2A] | 5.0 | 5 |  |  |  |  |
| [2H]C1([2H])Sc2ccccc2[C@@H](N2[C@@H]3COCCN3C(=O)c3c(OCOC(=O)OC)c(=O)ccn32)c2ccc(F)c(F)c21 [2B] | 15.9 |  |  |  |  | 0.71 |
| [2H]C1([2H])Sc2ccccc2[C@]([2H])(N2[C@@H]3COCCN3C(=O)c3c(O)c(=O)ccn32)c2ccc(F)c(F)c21 [3A] | 7.8 | 5.2 |  | twice | 0.0006 |  |
| [2H]C1([2H])Sc2ccccc2[C@]([2H])(N2[C@@H]3COCCN3C(=O)c3c(OCOC(=O)OC)c(=O)ccn32)c2ccc(F)c(F)c21 [3B] | 19.8 |  |  |  |  | 0.33 |
| O=C1c2c(O)c(=O)ccn2N([C@@H]2c3ccccc3SCc3c2ccc(F)c3F)[C@@H]2COCCN12 [S-033188A, reference compound] | 4.7 | 3.8 | 29.9 |  |  |  |
| COC(=O)OCOc1c2n(ccc1=O)N([C@@H]1c3ccccc3SCc3c1ccc(F)c3F)[C@@H]1COCCN1C2=O [S-033188B, reference compound] | 15.3 |  |  |  |  | 0.78 |

Reference: patent publication US12161646B2, “Polycyclic carbamoylpyridone derivatives, pharmaceutical compositions and use thereof” (JIAXING ANDICON BIOTECH CO., LTD., priority 2018, dated 2024)
